Data taken from patent US20120115727A1, “CONTROL OF PHENOXYALKANOIC ACID HERBICIDE-RESISTANT WEEDS WITH 4-AMINO-3-CHLORO-6-(4-CHLORO-2-FLUORO-3-METHOXYPHENYL)PYRIDINE-2-CARBOXYLIC ACID AND ITS SALTS OR ESTERS” (DOW AGROSCIENCES LLC, priority 2010, published 2012).

What was measured:
Test in all cases: Postemergence herbicidal activity, greenhouse, visual injury
Type in all cases: in vivo, Papaver rhoeas
Conditions in all cases: 20-22 d after application
[1] = tested on: PAPRH-S4F00103 (phenoxyalkanoic acid herbicide-resistant corn poppy)
Protocol: (§1) Seeds of the phenoxyalkanoic acid herbicide-resistant and susceptible plant species were planted in Sun Gro MetroMix® 306 planting mixture, which typically has a pH of 6.0 to 6.8 and an organic matter content of about 30 percent, in plastic pots with a surface area of 103.2 square centimeters (cm^2). When required to ensure good germination and healthy plants, a fungicide treatment and/or other chemical or physical treatment was applied. The plants were grown for 7-36 days (d) in a greenhouse with an approximate 14-hour (h) photo-period which was maintained at about 18° C. during the day and 17° C. during the night. Nutrients and water were added on a regular basis and supplemental lighting was provided with overhead metal halide 1000-Watt lamps as necessary. The plants were employed for testing when they reached the second or third true leaf stage.
(§2) Treatments consisted of the acid or esters of 4-amino-3-chloro-6-(4-chloro-2-fluoro-3-methoxyphenyl)pyridine-2-carboxylic acid (Compound I) and 2,4-D, mecoprop and 2-(4-chloro-2-methyl-phenoxy)acetic acid (MCPA) alone. Weighed amounts of the herbicides were dissolved in a volume of 97:3 volume-per-volume (v/v) acetone/dimethylsulfoxide (DMSO) to obtain concentrated solutions. […] The concentrated solutions of the test compound were diluted with the addition of an aqueous mixture containing acetone, water, isopropyl alcohol, DMSO, Agri-Dex crop oil concentrate, and Triton® X-77 surfactant in a 64.7:26.0:6.7:2.0:0.7:0.01 v/v ratio. Test compounds were diluted to the appropriate application rate with a dilution solution which was prepared by mixing the appropriate volume of 97:3 v/v acetone/DMSO and the appropriate volume of an aqueous mixture containing acetone, water, isopropyl alcohol, DMSO, Agri-Dex crop oil concentrate, and Triton® X-77 surfactant in a 64.7:26.0:6.7:2.0:0.7:0.01 v/v ratio. Compound requirements are based upon a 12 mL application volume at a rate of 187 liters per hectare (L/ha). Spray solutions of 2,4-D, mecoprop and MCPA were prepared by diluting an aliquot of the concentrated herbicide with an aqueous mixture containing 1.25% v/v Agri-Dex. 2,4-D, mecoprop and MCPA were applied at 1×, 2× and 4× of the recommended application rate.
(§3) Formulated compounds were applied to the plant material with an overhead Mandel track sprayer equipped with 8002E nozzles calibrated to deliver 187 L/ha over an application area of 0.503 square meters (m^2) at a spray height of 18 inches (43 centimeters (cm)) above average plant canopy. Control plants were sprayed in the same manner with the solvent blank.
(§4) The treated plants and control plants were placed in a greenhouse as described above and watered by sub-irrigation to prevent wash-off of the test compounds. After 20-22 d, the condition of the test plants as compared with that of the control plants was determined visually and scored on a scale of 0 to 100 percent where 0 corresponds to no injury and 100 corresponds to complete kill.

[2] = tested on: PAPRH-S1F00101 (phenoxyalkanoic acid herbicide-resistant corn poppy)
Protocol: as §1, §2, §3, §4

[3] = tested on: PAPRH-S4F00101 (phenoxyalkanoic acid herbicide-resistant corn poppy)
Protocol: as §1, §2, §3, §4

[4] = tested on: PAPRH-S2F01502 (phenoxyalkanoic acid herbicide-resistant corn poppy)
Protocol: as §1, §2, §3, §4

[5] = tested on: PAPRH-Susceptible (susceptible corn poppy)
Protocol: as §1, §2, §3, §4

Row | SMILES | Activity (visual injury, 0 = no injury, 100 = complete kill) PAPRH-S4F00103 ([1]; 800 g ae/ha) [%] | Activity (visual injury, 0 = no injury, 100 = complete kill) PAPRH-S4F00103 ([1]; 1600 g ae/ha) [%] | Activity (visual injury, 0 = no injury, 100 = complete kill) PAPRH-S4F00103 ([1]; 3200 g ae/ha) [%] | Activity (visual injury, 0 = no injury, 100 = complete kill) PAPRH-S1F00101 ([2]; 800 g ae/ha) [%] | Activity (visual injury, 0 = no injury, 100 = complete kill) PAPRH-S1F00101 ([2]; 1600 g ae/ha) [%] | Activity (visual injury, 0 = no injury, 100 = complete kill) PAPRH-S1F00101 ([2]; 3200 g ae/ha) [%] | Activity (visual injury, 0 = no injury, 100 = complete kill) PAPRH-S4F00101 ([3]; 800 g ae/ha) [%] | Activity (visual injury, 0 = no injury, 100 = complete kill) PAPRH-S4F00101 ([3]; 1600 g ae/ha) [%] | Activity (visual injury, 0 = no injury, 100 = complete kill) PAPRH-S4F00101 ([3]; 3200 g ae/ha) [%] | Activity (visual injury, 0 = no injury, 100 = complete kill) PAPRH-S2F01502 ([4]; 800 g ae/ha) [%] | Activity (visual injury, 0 = no injury, 100 = complete kill) PAPRH-S2F01502 ([4]; 1600 g ae/ha) [%] | Activity (visual injury, 0 = no injury, 100 = complete kill) PAPRH-S2F01502 ([4]; 3200 g ae/ha) [%] | Activity (visual injury, 0 = no injury, 100 = complete kill) PAPRH-Susceptible ([5]; 800 g ae/ha) [%] | Activity (visual injury, 0 = no injury, 100 = complete kill) PAPRH-Susceptible ([5]; 1600 g ae/ha) [%] | Activity (visual injury, 0 = no injury, 100 = complete kill) PAPRH-Susceptible ([5]; 3200 g ae/ha) [%] | also measured
1 | COc1c(Cl)ccc(-c2cc(N)c(Cl)c(C(=O)O)n2)c1F [Compound I, 4-amino-3-chloro-6-(4-chloro-2-fluoro-3-methoxyphenyl)pyridine-2-carboxylic acid] |  |  |  |  |  |  |  |  |  |  |  |  |  |  |  | Activity (visual injury, 0 = no injury, 100 = complete kill) PAPRH-S4F00103 ([1]; 7.5 g ae/ha): 78%; Activity (visual injury, 0 = no injury, 100 = complete kill) PAPRH-S4F00103 ([1]; 10 g ae/ha): 95%; Activity (visual injury, 0 = no injury, 100 = complete kill) PAPRH-S1F00101 ([2]; 7.5 g ae/ha): 90%; Activity (visual injury, 0 = no injury, 100 = complete kill) PAPRH-S1F00101 ([2]; 10 g ae/ha): 90%; Activity (visual injury, 0 = no injury, 100 = complete kill) PAPRH-S4F00101 ([3]; 7.5 g ae/ha): 88%; Activity (visual injury, 0 = no injury, 100 = complete kill) PAPRH-S4F00101 ([3]; 10 g ae/ha): 94%; Activity (visual injury, 0 = no injury, 100 = complete kill) PAPRH-S2F01502 ([4]; 7.5 g ae/ha): 93%; Activity (visual injury, 0 = no injury, 100 = complete kill) PAPRH-S2F01502 ([4]; 10 g ae/ha): 94%; Activity (visual injury, 0 = no injury, 100 = complete kill) PAPRH-Susceptible ([5]; 7.5 g ae/ha): 95%; Activity (visual injury, 0 = no injury, 100 = complete kill) PAPRH-Susceptible ([5]; 10 g ae/ha): 97%
2 | O=C(O)COc1ccc(Cl)cc1Cl [2,4-D, (2,4-dichlorophenoxy)acetic acid] | 21 | 19 | 59 | 21 | 16 | 50 | 22 | 42 | 33 | 15 | 53 | 51 | 85 | 94 | 99 | 
3 | Cc1cc(Cl)ccc1OCC(=O)O [MCPA, 2-(4-chloro-2-methyl-phenoxy)acetic acid] | 23 | 40 | 57 | 14 | 23 | 57 | 28 | 37 | 60 | 28 | 14 | 58 | 70 | 89 | 100 | 
